Experimental data taken from US20210221784A1, “COMPOUNDS AND COMPOSITIONS FOR THE TREATMENT OF PAIN” (Université de Strasbourg, priority 2018, published 2021).

Assays:
hNPFFR1 = molecular target: T1, hNPFFR1 (Homo sapiens, UniProt Q9GZQ6); test: Radioligand binding competition, membranes from CHO cells expressing hNPFFR1; details: 0.015 nM [D-Tyr1[125I], N-MePhe3]-NPFF, 1 hr at 25° C., read-out: NPFF1-R Ki
T1 construct: expressed in transfected cells; membranes
How it was run: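 CHO membranes (5–10 μg protein) stably expressing hNPFFR1 or hNPFFR2 incubated 1 h at 25 °C with 0.015 nM [D-Tyr1[125I], N-MePhe3]-NPFF in HEPES pH 7.4 with Ca2+, Mg2+, 0.1% BSA. Non-specific binding defined with 10 μM RFRP-3; bound radioactivity counted after GF/B filtration.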

hNPFF2R = molecular target: T2, hNPFF2R (Homo sapiens, UniProt Q9Y5X5); test: Glo Sensor cAMP assay in HEK-293 expressing hNPFF2R; format: cell-based; details: cells expressing hNPFF2R; forskolin 0.5 μM
T2 construct: expressed in transfected cells
T2 sequence (Q9Y5X5 whole entry): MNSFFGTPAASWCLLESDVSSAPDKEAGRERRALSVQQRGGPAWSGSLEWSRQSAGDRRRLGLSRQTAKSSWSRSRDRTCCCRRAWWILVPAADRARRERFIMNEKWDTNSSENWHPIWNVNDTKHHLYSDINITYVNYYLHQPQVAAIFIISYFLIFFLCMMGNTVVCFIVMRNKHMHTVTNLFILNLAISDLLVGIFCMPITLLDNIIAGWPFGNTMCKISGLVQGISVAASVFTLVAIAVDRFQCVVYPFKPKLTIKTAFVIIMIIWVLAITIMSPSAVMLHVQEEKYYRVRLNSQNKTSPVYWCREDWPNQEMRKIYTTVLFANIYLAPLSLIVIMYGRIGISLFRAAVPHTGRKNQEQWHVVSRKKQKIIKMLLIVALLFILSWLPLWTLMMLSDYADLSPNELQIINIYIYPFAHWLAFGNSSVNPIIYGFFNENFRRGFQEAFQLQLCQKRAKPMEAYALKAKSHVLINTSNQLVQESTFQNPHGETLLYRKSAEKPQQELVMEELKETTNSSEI
Description: The functional characterization of the selected compounds was performed by Glo Sensor cAMP kinetic assay, a validated approach for measuring Gαi/s activation by GPCRs (DiRaddo et al., 2014; Gilissen et al., 2015). HEK-Glo cells expressing either NPFF1 or NPFF2 receptors were suspended (10^6 cells per mF) in physiological Hepes buffer (10 mM HEPES, 0.4 mM NaH2PO4, 137.5 mM NaCl, 1.25 mM MgCl2, 1.25 mM CaCl2, 6 mM KCl, 10 mM glucose and 1 mg/mF bovine serum albumin, pH 7.4) supplemented with 1 mM D-Fuciferine. After equilibration for 2 h at 25° C., luminescence levels were recorded in real time in 96-well plates using a Flexstation^R 3 (Molecular Devices, Sunnyvale Calif., USA). Non-specific effect of the different compounds was evaluated in HEK-Glo cells without any recombinant human RF-amide receptors. To test the agonist activity on NPFF1R and NPFF2R, compounds were injected 15 minutes before addition of forskolin (0.5 μM) and readings were pursued for 90 minutes. […] According to their preferential coupling to Gi/o proteins, the stimulation of NPFF1R and NPFF2R by agonists was monitored as a dose-dependent reduction in steady-state luminescence levels, reflecting the inhibition of forskolin-induced cAMP accumulation. […]

[1] = molecular target: T3, human NPFFR1 (hNPFFR1) receptor (Homo sapiens, UniProt Q9GZQ6); test: Human NPFFR1 evaluation using BRET biosensors in HEK-293 T cells; format: cell-based; details: hNPFFR1 in HEK-293 T cells, stimulated by EC80 RFRP-3, read-out: IC50 of antagonist activity
T3 construct: expressed in transfected cells; host or cells: HEK-293 T cells, transient co-transfection
T3 sequence (Q9GZQ6 whole entry): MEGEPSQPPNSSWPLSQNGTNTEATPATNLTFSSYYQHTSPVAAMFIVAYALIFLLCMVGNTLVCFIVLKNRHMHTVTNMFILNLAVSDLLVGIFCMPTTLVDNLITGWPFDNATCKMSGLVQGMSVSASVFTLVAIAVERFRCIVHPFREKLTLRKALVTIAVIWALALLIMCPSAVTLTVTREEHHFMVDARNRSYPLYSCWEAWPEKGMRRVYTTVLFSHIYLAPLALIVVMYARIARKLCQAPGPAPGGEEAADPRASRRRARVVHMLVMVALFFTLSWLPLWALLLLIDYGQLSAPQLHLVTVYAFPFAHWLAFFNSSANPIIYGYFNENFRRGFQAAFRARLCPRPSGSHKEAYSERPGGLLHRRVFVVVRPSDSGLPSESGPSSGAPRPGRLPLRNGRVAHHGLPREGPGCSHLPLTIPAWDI
How it was run: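 HEK-293 T cells transiently co-expressing hNPFFR1, GαoB and a Gi-effector BRET biosensor pair; agonist read after 10 min compound alone, then antagonism after EC80 RFRP-3 for 10 min. IC50 from 20-point curves over 6 logs, duplicates in two independent experiments.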

C57BF6/N male mice [2] = test: Morphine-induced hyperalgesia and tolerance, tail immersion test; format: in vivo
C57BF6/N male mice [3] = test: Incisional pain model, Von Frey test; format: in vivo

T1 sequence (Q9GZQ6 whole entry): as above

SMILES: Nc1ccc(-c2cccc(Cl)c2Cl)c(N)n1 [Compound 1j, 3-(2,3-dichlorophenyl)pyridine-2,6-diamine]
- Ki (hNPFFR1): 20 ± 2 nM
- effect of compound tested alone (agonist activity) (hNPFF2R): had no effect
- IC50 [1]: 100 to 500 nM
- Hyperalgesia index (HI) d1 to d7 (C57BF6/N male mice [2]; daily morphine 10 mg/kg s.c., 1j 5 mg/kg oral or vehicle before morphine, FIG. 2B): 0.1±3
- morphine analgesia at day 0, effect of co-administration (C57BF6/N male mice [2]; mouse, in vivo): not significantly modified
- peak of analgesia at day 0 (C57BF6/N male mice [2]; mouse, in vivo): 19±0.8
- peak of analgesia at day 8 (C57BF6/N male mice [2]; mouse, in vivo): 14±0.9
- mechanical allodynia after paw incision (allodynia index d1-d6), drug alone (C57BF6/N male mice [3]; morphine 2.5 mg/kg sc. alone or 1j 5 mg/kg po alone, FIG. 3B): slightly attenuated but not significantly the mechanical allodynia
- mechanical allodynia after paw incision (allodynia index d1-d6), pre-treatment before morphine (C57BF6/N male mice [3]; mouse, in vivo): significantly enhanced morphine effect at preventing the mechanical allodynia
